In one assay the test system is Meloidogyne spp. J2s. The experiment in a line: In vitro mobility of Meloidogyne spp. J2s exposed to plant cysteine proteinases. Type of assay: cell-based, M. incognita or M. javanica. Particulars: 25 μM active enzyme. The procedure: Eggs of M. incognita race 1 from North Carolina State University, USA, and M. javanica from Portugal were collected from the roots of infected tomato plants grown in a glasshouse at 23° C. in a 16:8 h light-dark regime. Eggs were extracted using 1% hypochlorite (NaClO) solution (Hussey and Barker, 1973) or by picking egg masses from the infected roots. M. incognita and M. javanica were both used in the experiments and produced similar results. Juveniles (J2) were hatched from the eggs and egg masses in water. Globodera rostochiensis cysts were washed extensively in distilled water. Hatched J2s were obtained by incubating cysts in distilled water for 4 days followed by exposure to potato root diffusate (PRD).
Approximately 1000 J2s (second juvenile stage) of M. incognita or M. javanica were incubated per well of a 48-well plate with the following active enzyme concentrations (determined by E-64 titration) of papain dissolved in distilled water containing 16 mM L-cysteine (to activate the cysteine proteinase): 1.5 μM, 3 μM, 6.25 μM, 12.5 μM, 25 μM, 50 μM, 75 μM and 100 μM. […] The number of active J2s per well was counted prior to the addition of papain, and then the J2s were incubated in the dark at room temperature for 3 h. The number of mobile J2s per well was counted after 60, 120 and 180 mins. […]

Another assay concerns M. incognita J2. Put plainly: In vitro live/dead count of M. incognita J2 in solution without soil (Example 2). Type of assay: cell-based. Here is the method:
Eggs of M. incognita race 1 from North Carolina State University, USA were collected from tomato-infected roots grown in a glasshouse at 23° C. in a 16:8 h light-dark regime. Eggs were extracted using 1% hypochlorite (NaClO) solution (Hussey and Barker, 1973) or by picking egg masses from tomato-infected roots. Juveniles (J2) were hatched from the eggs and egg masses in water. Heterodera glycines eggs were obtained from soil samples stored in Rothamsted-Research. Second stage juveniles (J2) were hatched from the eggs in water after 10 days. Pratylenchus penetrans were a gift from Dr. Deeren Anne-Marie from the Institute for Agricultural and Fisheries Research, Merelbeke, Belgium. The beneficial nematodes Steinernema feltiae and Heterorhabditis megidis were a gift from Dr. Paul Williams from Becker Underwood. […]
Control wells were set up which contained J2s and distilled water with 16 mM L-cysteine. […] The actual number of active J2s per well was counted with the aid of an Olympus inverted microscope, prior to the addition of the enzymes, and then the J2s were incubated in the dark at room temperature for 2 hs, 16 hs, 24 hs or 40 hr. The number of live and dead J2s per well was counted after each enzyme incubation. […]

A further assay relates to Heterorhabditis megidis. The experiment in a line: In vitro effect on the beneficial nematode Heterorhabditis megidis. Type of assay: cell-based. The procedure:
(§1) Eggs of M. incognita race 1 from North Carolina State University, USA were collected from tomato-infected roots grown in a glasshouse at 23° C. in a 16:8 h light-dark regime. Eggs were extracted using 1% hypochlorite (NaClO) solution (Hussey and Barker, 1973) or by picking egg masses from tomato-infected roots. Juveniles (J2) were hatched from the eggs and egg masses in water. Heterodera glycines eggs were obtained from soil samples stored in Rothamsted-Research. Second stage juveniles (J2) were hatched from the eggs in water after 10 days. Pratylenchus penetrans were a gift from Dr. Deeren Anne-Marie from the Institute for Agricultural and Fisheries Research, Merelbeke, Belgium. The beneficial nematodes Steinernema feltiae and Heterorhabditis megidis were a gift from Dr. Paul Williams from Becker Underwood.
Control wells were set up which contained J2s and distilled water with 16 mM L-cysteine. Each enzyme concentration and the controls were set up in duplicate (i.e. n=2). The actual number of active J2s per well was counted with the aid of an Olympus inverted microscope, prior to the addition of the enzymes, and then the J2s were incubated in the dark at room temperature for 2 hs, 16 hs, 24 hs or 40 hr. The number of live and dead J2s per well was counted after each enzyme incubation. The same procedure was followed when setting up further experiments to compare the effects of these enzymes with Heterodera glycines J2, Pratylenchus penetrans, Steinernema feltiae and Heterorhabditis megidis.
The beneficial nematodes Hetorhabditis megidis and Steinernema feltiae were incubated with dilutions of actinidin, bromelain and pappain from papaya latex (see concentrations used in table 3). These nematodes reacted differentially to these cysteine proteinases (Tables 4 and 5). […] S. feltiae were dead at all concentrations of actinidin tested. […] After 16 hs of observation the enzyme solutions were diluted with water (to half of the initial concentrations) however, no change in nematode movement was observed after 24 hs.

A further assay relates to Pratylenchus penetrans. Put plainly: In vitro live/dead count of Pratylenchus penetrans. Type of assay: cell-based. The procedure:
as §1
Control wells were set up which contained J2s and distilled water with 16 mM L-cysteine. Each enzyme concentration and the controls were set up in duplicate (i.e. n=2). […] The number of live and dead J2s per well was counted after each enzyme incubation. The same procedure was followed when setting up further experiments to compare the effects of these enzymes with Heterodera glycines J2, Pratylenchus penetrans, Steinernema feltiae and Heterorhabditis megidis.

“Also recorded” adds a separate entry of the source.

With stem bromelain, the “proportion of active Meloidogyne spp. J2s relative to control” value in the assay with Meloidogyne spp. J2s is “significant reduction; also recorded: Reductions in the proportion of active worms were evident”. Further, the recovery of movement entry in the assay on M. incognita J2 (after 40 hs of observation, at the nematicidal concentration) is on record as “not able to recover movement”. For the same substance, the “concentration of active bromelain with nematicidal effect” value in the assay with M. incognita J2 (in solution without soil) amounted to 1 mM. Moreover, the “nematode motility or behaviour” value in the assay on Heterorhabditis megidis (enzyme concentration A (Table 3): actinidin 3.3 mM, bromelain 2.2 mM, papain 250 uM) is given as “All paralysed”; in the assay on Heterorhabditis megidis (enzyme concentration B: actinidin 1.7 mM, bromelain 1.1 mM, papain 125 uM), “All paralysed”; in the assay on Heterorhabditis megidis (enzyme concentration C: actinidin 840 uM, bromelain 560 uM, papain 62.5 uM), “All paralysed”. Besides, the “effect on H. megidis” value is given as “paralysed” in the assay on Heterorhabditis megidis (higher concentrations) and “only affected slightly” in the assay on Heterorhabditis megidis (lower concentrations). In the assay with Pratylenchus penetrans, the “concentration of bromelain that killed the nematodes” value stood at 560 µM. Also, the recovery of mobility entry in the assay on Pratylenchus penetrans (after 48 hs) is “no recovery of mobility”.
